Columns and labels:
[1] = system: recombinant human CFTR carrying the premature stop codon (PTC) mutation R1162X; test: CFTR-PTC mutant translation readthrough, Nanoluc tagged CFTR luminescence (R1162X cell line); type: cell-based; details: for CFTR R1162X ACTIVITY Fold 10 μM G-418: fold over 10 μM G-418, in combination with G418; for EC50: in combination with G418, 16HBE cells, read-out: CFTR R1162X ACTIVITY EC50
Outline: (§1)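 16HBE cells stably expressing Nanoluc-tagged human CFTR with G542X or R1162X, in medium with 3 μM VX-809, treated 48 h at 37 °C with compound (10-point, 2-fold, top 50 μM final) alone or with 10 μM G418. Live-cell Nanoluc luminescence normalised to a maximally effective G418 (125-250 μM).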

[2] = system: recombinant human CFTR carrying the premature stop codon (PTC) mutation G542X; test: CFTR-PTC mutant translation readthrough, Nanoluc tagged CFTR luminescence (G542X cell line); type: cell-based; details: in combination with G418, G542X cell line; for CFTR G542X ACTIVITY Fold 10 μM G-418: fold over 10 μM G-418; for EC50: 16HBE cells
Outline: as §1

SMILES	EC50 [1] [µM]	EC50 [2] [µM]	CFTR R1162X ACTIVITY Fold 10 μM G-418 [1]	CFTR G542X ACTIVITY Fold 10 μM G-418 [2]
O[C@H]1CCN(c2ncc(OCc3c(Cl)cccc3Cl)cn2)C1 [(3S)-1-[5-[(2,6-dichlorophenyl)methoxy]pyrimidin-2-yl]pyrrolidin-3-ol]	1 to 10	1 to 10	A′ (A′ = ≥10X)	A′ (A′ = ≥10X)
O=C1N[C@@H](CO)CN1c1ncc(OCc2c(Cl)cccc2C(F)(F)F)cn1 [(4R)-1-(5-{[2-chloro-6-(trifluoromethyl)phenyl]methoxy}pyrimidin-2-yl)-4-(hydroxymethyl)imidazolidin-2-one]	1 to 10	1 to 10	C′ (C′ = <5X)	C′ (C′ = <5X)
O=C1O[C@@H](CO)CN1c1ccc(OCc2c(Cl)cccc2Cl)cc1 [(5R)-3-[4-[(2,6-dichlorophenyl)methoxy]phenyl]-5-(hydroxymethyl)oxazolidin-2-one]	1 to 10	1 to 10	A′ (A′ = ≥10X)	A′ (A′ = ≥10X)
O=C1O[C@H](CO)CN1c1ncc(OCc2c(Cl)cccc2C(F)(F)F)cn1 [(5S)-3-(5-{[2-chloro-6-(trifluoromethyl)phenyl]methoxy}pyrimidin-2-yl)-5-(hydroxymethyl)-1,3-oxazolidin-2-one]	> 10	1 to 10	C′ (C′ = <5X)	C′ (C′ = <5X)
O=C1O[C@H](CO)CN1c1ccc(OCc2c(Cl)cccc2Cl)cc1 [(5S)-3-[4-[(2,6-dichlorophenyl)methoxy]phenyl]-5-(hydroxymethyl)oxazolidin-2-one]	1 to 10	1 to 10	B′ (B′ = ≥5X to <10X)	B′ (B′ = ≥5X to <10X)
OCc1cc(-c2ncc(OCc3c(Cl)cccc3Cl)cn2)[nH]n1 [Compound 252, [5-[5-[(2,6-dichlorophenyl)methoxy]pyrimidin-2-yl]-1H-pyrazol-3-yl]methanol]	1 to 10	1 to 10	B′ (B′ = ≥5X to <10X)	A′ (A′ = ≥10X)
O=C1Cc2cc(NCc3c(Cl)cccc3Cl)ccc2C(=O)N1 [Compound 303, 6-[(2,6-dichlorophenyl)methylamino]-4H-isoquinoline-1,3-dione]	> 10	> 10		
NCc1nnc(-c2ccc(OCc3c(Cl)cccc3Cl)cc2)o1 [Example 226, [5-[4-[(2,6-dichlorophenyl)methoxy]phenyl]-1,3,4-oxadiazol-2-yl]methanamine]	1 to 10	1 to 10	B′ (B′ = ≥5X to <10X)	B′ (B′ = ≥5X to <10X)
NCc1cn(-c2ccc(OCc3c(Cl)cccc3Cl)cc2)cn1 [Example 227, [1-[4-[(2,6-dichlorophenyl)methoxy]phenyl]imidazol-4-yl]methanamine]	1 to 10	1 to 10	B′ (B′ = ≥5X to <10X)	B′ (B′ = ≥5X to <10X)
NCc1cc(-c2ccc(OCc3c(Cl)cccc3Cl)cn2)no1 [Example 234, [3-[5-[(2,6-dichlorophenyl)methoxy]-2-pyridyl]isoxazol-5-yl]methanamine]	1 to 10	< 1	A′ (A′ = ≥10X)	A′ (A′ = ≥10X)
OCc1cn(-c2ccc(OCc3cc(Cl)cc(Cl)c3)cc2)cn1 [[1-[4-[(3,5-dichlorophenyl)methoxy]phenyl]imidazol-4-yl]methanol]	> 10	1 to 10	C′ (C′ = <5X)	

Further lines, with some results ahead:

EC50 [1] [µM]	EC50 [2] [µM]	SMILES	CFTR R1162X ACTIVITY Fold 10 μM G-418 [1]	CFTR G542X ACTIVITY Fold 10 μM G-418 [2]
1 to 10	1 to 10	O=C1CN(c2ncc(OCc3c(Cl)cccc3Cl)cn2)C(=O)N1 [Example 323, 1-{5-[(2,6-dichlorophenyl)methoxy]pyrimidin-2-yl}imidazolidine-2,4-dione]	C′ (C′ = <5X)	C′ (C′ = <5X)
> 10	1 to 10	OCc1cn(-c2ccc(CCc3c(Cl)cccc3Cl)cc2)cn1 [[1-[4-[2-(2,6-dichlorophenyl)ethyl]phenyl]imidazol-4-yl]methanol]	A′ (A′ = ≥10X)	B′ (B′ = ≥5X to <10X)
1 to 10	1 to 10	OCc1ncn(-c2ccc(OCc3c(Cl)cccc3Cl)cc2)n1 [[1-[4-[(2,6-dichlorophenyl)methoxy]phenyl]-1,2,4-triazol-3-yl]methanol]	A′ (A′ = ≥10X)	A′ (A′ = ≥10X)
1 to 10	< 1	OCc1cn(-c2ccc(OCc3c(Cl)cccc3Cl)cc2)cn1 [[1-[4-[(2,6-dichlorophenyl)methoxy]phenyl]imidazol-4-yl]methanol]	A′ (A′ = ≥10X)	A′ (A′ = ≥10X)
1 to 10	1 to 10	NCc1ccn(-c2ccc(OCc3c(Cl)cccc3Cl)cc2)n1 [[1-[4-[(2,6-dichlorophenyl)methoxy]phenyl]pyrazol-3-yl]methanamine]	A′ (A′ = ≥10X)	B′ (B′ = ≥5X to <10X)
1 to 10	< 1	OCc1ccn(-c2ccc(OCc3c(Cl)cccc3Cl)cc2)n1 [[1-[4-[(2,6-dichlorophenyl)methoxy]phenyl]pyrazol-3-yl]methanol]	A′ (A′ = ≥10X)	A′ (A′ = ≥10X)
1 to 10	1 to 10	OCc1cnn(-c2ccc(OCc3c(Cl)cccc3Cl)cc2)c1 [[1-[4-[(2,6-dichlorophenyl)methoxy]phenyl]pyrazol-4-yl]methanol]	A′ (A′ = ≥10X)	A′ (A′ = ≥10X)
1 to 10	1 to 10	OCc1cn(-c2ccc(OCc3c(Cl)cccc3C(F)(F)F)cc2)nn1 [[1-[4-[[2-chloro-6-(trifluoromethyl)phenyl]methoxy]phenyl]triazol-4-yl]methanol]	A′ (A′ = ≥10X)	A′ (A′ = ≥10X)
1 to 10	1 to 10	Cc1cccc(C(F)(F)F)c1COc1ccc(-n2cc(CO)nn2)cc1 [[1-[4-[[2-methyl-6-(trifluoromethyl)phenyl]methoxy]phenyl]triazol-4-yl]methanol]	A′ (A′ = ≥10X)	A′ (A′ = ≥10X)
> 10	1 to 10	OCc1cn(-c2ccc(CCc3c(Cl)cccc3Cl)cn2)cn1 [[1-[5-[2-(2,6-dichlorophenyl)ethyl]-2-pyridyl]imidazol-4-yl]methanol]	′	B′ (B′ = ≥5X to <10X)
> 10	1 to 10	OCc1cn(-c2ccc(OCc3c(Cl)cccc3Cl)cn2)cn1 [[1-[5-[(2,6-dichlorophenyl)methoxy]-2-pyridyl]imidazol-4-yl]methanol]	A′ (A′ = ≥10X)	B′ (B′ = ≥5X to <10X)

Source: patent US20250228865A1, “COMPOUNDS FOR ENHANCING READ THROUGH OF GENES CONTAINING PREMATURE TERMINATION CODONS AND METHODS FOR MAKING AND USING THE SAME” (Sanofi US Services Inc., priority 2022, published 2025)
